Assay results from patent US20230272484A1, “METHODS OF PROGNOSING, DETERMINING TREATMENT COURSE AND TREATING MULTIPLE MYELOMA” (Yeda Research and Development Co. Ltd., priority 2020, published 2023).

System: ex-vivo cultured patient malignant plasma cells (PRMM patient Z01)
Experiment: FACS apoptosis assay (DAPI and Annexin-V) on ex vivo cultured patient cells
Assay type: cell-based, human
Settings: resistant PRMM patient Z01, DAPI and Annexin-V FACS
Protocol: Finally, it was evaluated whether this synergistic effect is also relevant to PI resistant MM patients. For this end, the present inventors collected BM sample from a highly resistant PRMM patient (Z01, Methods) and sorted the cells for MARS-seq analysis, confirming the patient is also positive for the resistance signature 1 (FIGS. 9E-G). […] The present inventors evaluated the patient ex vivo response to these treatments by FACS analysis of apoptotic cells using DAPI and Annexin-V staining.

CC(C)C[C@H](NC(=O)[C@H](CCc1ccccc1)NC(=O)CN1CCOCC1)C(=O)N[C@@H](Cc1ccccc1)C(=O)N[C@@H](CC(C)C)C(=O)[C@@]1(C)CO1 [Carfilzomib]
live cells: 23.4%
